Patent publication US20230099803A1, “OXAZOLIDINONE FOR TREATMENT OF INFECTIONS WITH MYCOBACTERIUM TUBERCULOSIS” (priority 2017, published 2023)
In brackets after ≈: the same amount, converted by molar mass. Read-outs that look alike come from different tables or passages of the source.

Legend:
[1] = tested on: Staphylococcus aureus methicillin-sensitive; experiment: MIC90 broth microdilution; assay type: cell-based; settings: ATCC29213, ATCC 29213, 35° C., 18 hours
Enterococcus faecalis [2] = experiment: MIC90 broth microdilution; assay type: cell-based; settings: ATCC19433, ATCC 19433, 35° C., 18 hours
[3] = tested on: Mycobacterium tuberculosis; settings: values marked with literature reference (^4,11 or ^15), cited from earlier work
[4] = tested on: Acinetobacter baumannii 6M-1b; experiment: MIC90 broth microdilution; assay type: cell-based; settings: 6M1B, environmental strain 6M-1b, 35° C., 18 hours
[5] = tested on: Acinetobacter baumannii ATCC 19606; experiment: MIC90 broth microdilution; assay type: cell-based; settings: ATCC19606, strain ATCC 19606, 35° C., 18 hours
[6] = tested on: Acinetobacter baumannii ACBA; experiment: MIC90 broth microdilution; assay type: cell-based; settings: patient isolate ACBA, 35° C., 18 hours
Enterobacter cloacae = experiment: MIC90 broth microdilution; assay type: cell-based; settings: for MIC90: Enterobacter cloacae, ATCC13047, ATCC 13047, 35° C., 18 hours
Klebsiella pneumoniae = experiment: MIC90 broth microdilution; assay type: cell-based; settings: for MIC90: Klebsiella pneumoniae, ATCC35657, ATCC 35657, 35° C., 18 hours
Pseudomonas aeruginosa = experiment: MIC90 broth microdilution; assay type: cell-based; settings: for MIC90: Pseudomonas aeruginosa, PA14, 35° C., 18 hours
Staphylococcus aureus [7] = settings: general statement on linezolid; cited from earlier work
Mycobacterium abscessus = experiment: MIC90 broth microdilution; assay type: cell-based; settings: for MIC90: Mycobacteroides abscessus, ATCC19977, 72 h, ATCC 19977, 30° C., 3 days
Mycobacterium avium = experiment: MIC90 broth microdilution; assay type: cell-based; settings: for MIC90: Mycobacterium avium, 168 h, strain 104, seven days at 37° C.
[8] = tested on: Mycobacterium tuberculosis; experiment: MIC90 broth macrodilution; settings: H37Rv; 7H9 broth, fourteen days at 37° C.
[9] = tested on: methicillin-resistant Staphylococcus aureus ATCC 43300; experiment: MIC90 determination; assay type: cell-based; settings: ATCC43300, methicillin-resistant strain ATCC 43300
[10] = tested on: Mycobacterium tuberculosis; experiment: Minimum bactericidal concentration (MBC99.9); assay type: cell-based
Enterococcus faecalis [11] = experiment: Minimum bactericidal concentration (MBC99.9); assay type: cell-based; settings: up to 8 times MIC90
Staphylococcus aureus [12] = experiment: Minimum bactericidal concentration (MBC99.9); assay type: cell-based; settings: up to 8 times MIC90
Enterococcus faecalis [13] = experiment: Checkerboard titration assay; assay type: cell-based; settings: T145 combined with doripenem, biapenem, faropenem and tebipenem; 1x to 1/16x MIC90
[14] = tested on: methicillin-sensitive Staphylococcus aureus; experiment: Checkerboard titration assay; assay type: cell-based; settings: T145 combined with doripenem, biapenem, faropenem and tebipenem; 1x to 1/16x MIC90
[15] = tested on: methicillin-resistant Staphylococcus aureus; experiment: Checkerboard titration assay; assay type: cell-based; settings: T145 combined with doripenem, biapenem, faropenem and tebipenem; 1x to 1/16x MIC90
[16] = tested on: Mycobacterium tuberculosis; experiment: Checkerboard titration assay; assay type: cell-based; settings: T145 combined with isoniazid or rifampicin
Text: The inventors also evaluated if any drug-drug interaction existed between T145 and isoniazid or rifampicin, two drugs that comprise the backbone of tuberculosis treatment today, against Mycobacterium tuberculosis using the checkerboard assay as described above. Any antagonism or synergy between T145 and isoniazid or rifampicin is not observed, and therefore that activity of T145 against Mycobacterium tuberculosis is indifferent to that of isoniazid or rifampicin.
This assay is a modification of the broth dilution assay and was carried out as described. In summary, each well containing 10^5 CFU received two drugs each in two fold dilutions below their respective MIC90. The suspensions are incubated at 37° C. and growth was evaluated as described above. Fractional Inhibitory Concentration (FIC) of a drug in a combination that inhibits bacterial growth is the concentration of the drug in the well divided by MIC90 of the drug if used alone. The sum of FIC of each drug in the combination is the FIC index. In each well where bacterial growth was absent, FIC index was calculated and an average FIC index was determined. Drug-drug antagonism was inferred if average FIC index is >2, indifference if 0.5-2.0 and synergy if ≤ 0.5.

Enterococcus faecalis [17] = tested on: Enterococcus faecalis
Staphylococcus aureus [18] = tested on: Staphylococcus aureus
[19] = Acinetobacter baumannii, read-out: MIC90

## C[C@@H](O)[C@H]1C(=O)N2C(C(=O)[O-])=C(SC3Cn4cnc[n+]4C3)[C@H](C)[C@H]12 (stereo partly shown) [Biapenem]
[1]
  MIC90: 0.007 to 0.015 µg/mL (≈ 0.02 to 0.0428 µM)
Enterococcus faecalis [2]
  MIC90: 0.25 to 0.5 µg/mL (≈ 0.713 to 1.43 µM)
[3]
  MIC90: 2.5-5.0 ^15 µg/ml

## C[C@@H](O)[C@H]1C(=O)N2C(C(=O)O)=C(S[C@@H]3CN[C@H](CNS(N)(=O)=O)C3)[C@H](C)[C@H]12 [Doripenem]
[1]
  MIC90: 0.003 to 0.007 µg/mL (≈ 0.00713 to 0.0166 µM)
Enterococcus faecalis [2]
  MIC90: 0.25 to 0.5 µg/mL (≈ 0.595 to 1.19 µM)
[3]
  MIC90: 2.5-5.0 ^15 µg/ml

## C[C@@H](O)[C@H]1C(=O)N2C(C(=O)O)=C([C@H]3CCCO3)S[C@H]12 [Faropenem]
[1]
  MIC90: 0.015 to 0.03 µg/mL (≈ 0.0526 to 0.105 µM)
Enterococcus faecalis [2]
  MIC90: 0.25 to 0.5 µg/mL (≈ 0.876 to 1.75 µM)
[3]
  MIC90: 2.5-5.0 ^15 µg/ml

## CC(=O)NC[C@H]1CN(c2ccc(N3CCOCC3)c(F)c2)C(=O)O1 [Linezolid]
[4]
  MIC90: 0.25 to 0.5 µg/mL (≈ 0.741 to 1.48 µM)
[5]
  MIC90: > 64 µg/mL
[6]; [19]
  MIC90: > 64 µg/mL
[6]
  MIC90: >64 µg/mL
Enterobacter cloacae
  MIC90: > 64 µg/mL
Klebsiella pneumoniae
  MIC90: 16 to 32 µg/mL (≈ 47.4 to 94.9 µM)
Pseudomonas aeruginosa
  MIC90: > 64 µg/mL
[1]
  MIC90: 1 to 2 µg/mL (≈ 2.96 to 5.93 µM)
Enterococcus faecalis [2]
  MIC90: 1 to 2 µg/mL (≈ 2.96 to 5.93 µM)
[3]
  MIC90: 0.2-2.0 ^4,11 µg/ml
[3]; listed as linezolid
  MIC90: 0.5 to 2.0 µg/mL
Staphylococcus aureus [7]
  bactericidal or bacteriostatic activity: bacteriostatic

## C[C@@H](O)[C@H]1C(=O)N2C(C(=O)O)=C(S[C@@H]3CN[C@H](C(=O)N(C)C)C3)[C@H](C)[C@H]12 [Meropenem]
[4]
  MIC90: 1 to 2 µg/mL (≈ 2.61 to 5.22 µM)
[5]
  MIC90: > 64 µg/mL
[6]; [19]
  MIC90: > 64 µg/mL
[6]
  MIC90: >64 µg/mL
Enterobacter cloacae
  MIC90: 0.13 to 0.25 µg/mL (≈ 0.339 to 0.652 µM)
Klebsiella pneumoniae
  MIC90: < 0.06 µg/mL
Pseudomonas aeruginosa
  MIC90: 0.25 to 0.5 µg/mL (≈ 0.652 to 1.3 µM)
[1]
  MIC90: 0.06 to 0.13 µg/mL (≈ 0.156 to 0.339 µM)
Enterococcus faecalis [2]
  MIC90: 4 to 8 µg/mL (≈ 10.4 to 20.9 µM)
Mycobacterium abscessus
  MIC90: > 64 µg/mL
Mycobacterium avium
  MIC90: > 64 µg/mL
[8]
  MIC90: 4 to 8 µg/mL

## CC(=O)NC[C@H]1CN(c2ccc3c(c2)Oc2ccccc2O3)C(=O)O1 [T145, N-(((S)-3-(dibenzo[b,e][1,4]dioxin-7-yl)-2-oxooxazolidin-5-yl)methyl)acetamide]
[4]
  MIC90: 0.25 to 0.5 µg/mL (≈ 0.735 to 1.47 µM)
[5]
  MIC90: 32 to 64 µg/mL (≈ 94 to 188 µM)
[6]; [19]
  MIC90: > 64 µg/mL
[6]
  MIC90: >64 µg/mL
Enterobacter cloacae
  antimicrobial activity (in words): no activity
  MIC90: > 64 µg/mL
Klebsiella pneumoniae
  antimicrobial activity (in words): no activity
  MIC90: > 64 µg/mL
Pseudomonas aeruginosa
  antimicrobial activity (in words): no activity
  MIC90: > 64 µg/mL
[1]
  MIC90: 0.5 to 1 µg/mL (≈ 1.47 to 2.94 µM)
Enterococcus faecalis [2]
  MIC90: 0.25 to 0.5 µg/mL (≈ 0.735 to 1.47 µM)
Mycobacterium abscessus
  antimicrobial activity (in words): no activity
  MIC90: > 64 µg/mL
Mycobacterium avium
  antimicrobial activity (in words): no activity
  MIC90: > 64 µg/mL
[9]
  MIC90: 0.5 to 1 µg/mL (≈ 1.47 to 2.94 µM)
[10]; 1, 2, 4 and 8 times MIC90
  bactericidal or bacteriostatic activity: bactericidal
[10]; Mycobacterium tuberculosis, concentration at which 99.9% of bacilli are killed
  MBC: 2 µg/mL (≈ 5.88 µM)
Enterococcus faecalis [11]
  bactericidal or bacteriostatic activity: bacteriostatic
Staphylococcus aureus [12]
  bactericidal or bacteriostatic activity: bacteriostatic
Enterococcus faecalis [13]
  drug-drug interaction (synergy, indifference or antagonism): indifferent
[14]
  drug-drug interaction (synergy, indifference or antagonism): indifferent
[15]
  drug-drug interaction (synergy, indifference or antagonism): indifferent
[16]
  drug-drug interaction (synergy, indifference or antagonism): indifferent
Enterococcus faecalis [17]
  selection of spontaneous resistant mutants: did not form classical distinct single colonies
Staphylococcus aureus [18]
  selection of spontaneous resistant mutants: did not form classical distinct single colonies
[8]
  MIC90: 0.5 to 1.0 µg/mL

## C[C@@H](O)[C@H]1C(=O)N2C(C(=O)O)=C(SC3CN(C4=NCCS4)C3)[C@H](C)[C@H]12 [Tebipenem]
[1]
  MIC90: 0.03 to 0.06 µg/mL (≈ 0.0782 to 0.156 µM)
Enterococcus faecalis [2]
  MIC90: 0.25 to 0.5 µg/mL (≈ 0.652 to 1.3 µM)
[3]
  MIC90: 1.25-2.5 ^15 µg/ml
